We go through eleven compounds from PMC3257251, “A Whole Cell Assay to Measure Caspase-6 Activity by Detecting Cleavage of Lamin A/C” (PLoS ONE, 2012).

Like-named read-outs stand apart in the source and are kept apart here. Peptide text beside a SMILES is read from it. * marks the point of attachment. Cbz = O=C(OCc1ccccc1)*; CH2F = FC* Some results are limits rather than exact numbers.

One series has as its target T1, Caspase-6 (Homo sapiens, UniProt P55212).
T1 sequence (P55212 24-179 limits assumed): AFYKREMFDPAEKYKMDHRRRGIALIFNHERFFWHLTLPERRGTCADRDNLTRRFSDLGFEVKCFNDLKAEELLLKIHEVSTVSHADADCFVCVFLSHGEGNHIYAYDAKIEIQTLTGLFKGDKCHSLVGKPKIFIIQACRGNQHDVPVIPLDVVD
T1 sequence (P55212 194-293 limits assumed): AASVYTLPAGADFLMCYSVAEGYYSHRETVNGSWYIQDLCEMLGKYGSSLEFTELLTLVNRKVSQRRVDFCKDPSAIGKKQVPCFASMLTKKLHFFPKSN
Description: Enzymatic caspase activity assay, (Ac-VEID)2-Rh110 substrate. To be noted: 15 minute enzyme/inhibitor preincubation and 40 minute enzyme reaction.

The target of series [1] is T2, caspase-6 cleavage of lamin A/C in SKNAS cells (Homo sapiens, UniProt P55212).
T2 construct: monitors cellular caspase-6 cleavage of endogenous lamin A/C under apoptotic conditions; endogenous in cells; host or cells: SKNAS (ATCC #CRL-2137)
T2 sequence (P55212 24-179 limits assumed): T1 sequence (P55212 24-179 limits assumed)
T2 sequence (P55212 194-293 limits assumed): T1 sequence (P55212 194-293 limits assumed)
Briefly: Cell-based ELISA for cleaved lamin A/C (cellular lamin cleavage assay). To be noted: for IC50: inhibitor 30 min before 3 µM staurosporine for 6 hours, small lamin A/C cleavage product; for activity in the cellular lamin degradation assay: inhibitor concentrations up to 100 µM, 3 µM staurosporine for 6 hours; for fold lower potency in cellular lamin assay than in enzymatic assay: cellular lamin cleavage IC50 versus enzymatic caspase-6 IC50. As for the experimental part: The following day, cell culture medium was aspirated and replaced with 20 µl/well basal medium (DMEM with no supplements added). […] 5 µl of diluted inhibitor was delivered to each well and incubated for 30 minutes in a cell culture incubator prior to addition of 5 µl/well staurosporine in basal medium. The final DMSO concentration in the assay was 0.1% and the final staurosporine concentration was 3 µM (or indicated concentration). […] Cells were permeabilized by the addition of 50 µl 0.2% Triton X-100 in PBS for 15 minutes at room temperature. […] The following day, primary antibody was aspirated and the wells washed 3 times with 100 µl TBST. Secondary antibody (donkey anti-rabbit IgG, HRP-conjugated (GE Healthcare #NA934V)) was delivered at 1∶2500 dilution in blocking agent (20 µl/well) and incubated 1 hour at room temperature.
In order to develop an assay more amenable to inhibitor screening, this antibody detection was adapted to a plate-based non-denaturing assay. SKNAS cells cultured in 384-well plates were treated with 3 µM staurosporine for six hours prior to fixation with 4% paraformaldehyde and permeabilization with 0.2% Triton X-100. Binding of the two antibodies that recognize neo-epitopes on the large or small lamin degradation products was detected by horseradish-peroxidase-labeled secondary antibody and subsequent chemiluminescent substrate addition (see methods for details).
A general note: ELISA stands for enzyme-linked immunosorbent assay.

In the next series the target is T3, Caspase-7 (Homo sapiens, UniProt P55210).
T3 sequence (P55210 24-198 limits assumed): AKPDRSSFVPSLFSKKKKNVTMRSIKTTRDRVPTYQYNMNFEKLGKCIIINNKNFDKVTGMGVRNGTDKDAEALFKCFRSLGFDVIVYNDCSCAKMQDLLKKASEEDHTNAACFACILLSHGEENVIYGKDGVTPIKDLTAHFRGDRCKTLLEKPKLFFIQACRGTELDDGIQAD
T3 sequence (P55210 207-303 limits assumed): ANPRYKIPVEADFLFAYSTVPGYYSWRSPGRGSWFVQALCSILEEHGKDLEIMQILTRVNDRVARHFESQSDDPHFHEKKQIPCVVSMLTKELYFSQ
Description: Enzymatic caspase activity assay, (Ac-DEVD)2-Rh110 substrate. To be noted: read-out: Mean IC50 Caspase-7; apparent IC50; 15 minute preincubation and 40 minute reaction; 5 pM caspase-7, 1 µM (Ac-DEVD)2-Rh110.

Series [2] relates to VEIDase activity in SKNAS cells. Briefly: Caspase-Glo 6 assay (lysate based). The series is classed as cell-based, human. Conditions: 3 µM staurosporine for 6 hours, lysate based readout, read-out: IC50 for inhibition of VEIDase activity, Caspase-Glo 6 assay. As for the experimental part: SKNAS cells were plated at a density of 20,000 cells per well into 384-well black clear-bottom cell culture plates in 20 µl/well growth medium and allowed to adhere overnight. The following day, 5 µl of peptide inhibitor diluted in growth medium was delivered to each well 30 minutes prior to addition of 5 µl/well staurosporine in growth medium. The final DMSO concentration in the assay was 0.1% and the final staurosporine concentration was 3 µM. Following 6 hours incubation at 37°C, Caspase-Glo® 6 reagents (Promega; Madison, WI) were prepared according to manufacturer's recommendation, and 30 µl was added directly to each well, followed by 1 hour incubation at 37°C and luminescence recording using a Perkin Elmer Envision.

For another series, the target named is T4, Caspase-3 (Homo sapiens, UniProt P42574).
T4 construct: made in house; host or cells: E. coli
T4 sequence (P42574 29-175 limits assumed): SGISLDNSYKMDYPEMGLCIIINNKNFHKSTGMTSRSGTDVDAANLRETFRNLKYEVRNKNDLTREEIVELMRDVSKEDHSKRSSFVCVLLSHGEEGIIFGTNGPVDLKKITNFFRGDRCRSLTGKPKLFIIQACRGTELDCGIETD
T4 sequence (P42574 176-277 limits assumed): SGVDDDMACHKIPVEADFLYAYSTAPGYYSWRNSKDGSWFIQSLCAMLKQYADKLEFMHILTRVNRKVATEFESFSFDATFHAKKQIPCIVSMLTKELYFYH
Description: Enzymatic caspase activity assay, (Ac-DEVD)2-Rh110 substrate. It counts as biochemical. To be noted: apparent IC50; 15 minute preincubation and 40 minute reaction; 300 pM caspase-3, 1 µM (Ac-DEVD)2-Rh110.

Series [3] has as its system SKNAS cells. Briefly: Mass spectrometry analysis of intracellular inhibitor accumulation. Conditions: 10 µM inhibitor, 1 hour at 37°C, LC/MS/MS.
Description: SKNAS cells were seeded in 12-well plates at a concentration of 5×10^6 cells/mL and allowed to adhere overnight prior to the experiment. Caspase inhibitors (10 µM) in Hank's balance Salt Solution (HBSS; Invitrogen) buffer containing 10 mM HEPES (Invitrogen) and a final DMSO concentration of 0.1% were added in triplicate to the cells. Non specific binding (NSB) samples were prepared by immediately aspirating the dose solution and washing the cells with 1 mL of ice cold HBSS. Cells for the accumulation experiment were incubated for 1 hour at 37°C with inhibitors prior to washing with 1 mL ice cold HBSS. Analytical internal standard (200 nM propranolol (Sigma) in 100% acetonitrile (ACN) with 0.1% formic acid) and blank HBSS buffer were sequentially added to the 12-well plates containing the NSB and accumulation samples. Reference samples for each inhibitor were made by adding internal standard to dose solution and cells incubated for 1 hour at 37°C. The cells from all experiments were scraped from the bottom of the 12 well plates, sonicated for approximately 30 minutes, and centrifuged for 10 minutes at 3000 x g prior to LC/MS/MS analysis.
The LC/MS/MS system consisted of an AB Sciex API4000 mass spectrometer (AB Sciex, Foster City, CA), an Aria LX2 multiplexing LC system (Thermo Fisher Scientific, Waltham, MA) and a CTC Analytics autosampler (Leap Technologies, Carrboro, NC). An ESI Spray source in the positive ion mode and multiple reaction monitoring (MRM) were used to quantitate peak areas. The LC separations were performed on a 50×2.0 mm Gemini C18 analytical column (Phenomenex, Torrance, CA). The mobile phases consisted of water with 0.1% formic acid (mobile phase A) and ACN with 0.1% formic acid (mobile phase B). Mass spectrometer data were processed using Analyst software version 1.4.2.
The test system of series [4] is SKNAS cells. Description: LDH release assay. It counts as cell-based, human. As to the method:
SKNAS cells were plated at a density of 20,000 cells per well into 384-well black clear-bottom cell culture plates in 20 µl/well growth medium and allowed to adhere overnight. The following day, 5 µl staurosporine diluted in growth medium was delivered to each well and incubated for the indicated time in a cell culture incubator. The final DMSO concentration in the assay was 0.1%. At each timepoint, lactate dehydrogenase (LDH) activity was measured in cell supernatants using a colorimetric LDH activity measurement kit (BioVision; Mountain View, CA) according to manufacturer's recommendation by measuring absorbance at 450 nm using a Spectramax platereader (Molecular Devices; Sunnyvale, CA).
Background: Release of lactate dehydrogenase indicates damage to the cell membrane.

Where [5] appears, read: read-out: Enzymatic Caspase-6 IC50.
The mark [6] stands for this setting: read-out: Mean IC50 Caspase-6, apparent IC50, 1 nM caspase-6, 5 µM (Ac-VEID)2-Rh110.

Description for Caspase-3: (§1) All peptide inhibitors were serially diluted in DMSO prior to cross dilution in assay buffer (50 mM HEPES pH 7.2, 25 mM MgSO4, 0.5 mM EGTA, 5 mM Glutathione, 0.01% Triton X-100 containing 0.1% Bovine Gamma Globulin (BGG)). […] Rhodamine-labeled bivalent tetrapeptide substrates were obtained from Anaspec (Fremont, CA) and used as follows: 300 pM caspase-3 reacted with 1 µM (Ac-DEVD)2 -Rh110, 1 nM caspase-6 reacted with 5 µM (Ac-VEID)2 -Rh110, 5 pM caspase-7 reacted with 1 µM (Ac-DEVD)2 -Rh110. Enzyme and inhibitor were preincubated for 15 minutes prior to the addition of substrate to initiate the enzymatic reaction.
Description for Caspase-7: as §1

The term IC50 denotes the point on the concentration scale where inhibition reaches its midpoint. Take `CC(=O)N[C@@H](CC(=O)O)C(=O)N[C@@H](CCC(=O)O)C(=O)N[C@H](C(=O)N[C@H](C=O)CC(=O)O)C(C)C` [Ac-DEVD-CHO]: the IC50 at Caspase-6 (setting [5]) was 31 nM; on Caspase-6 (setting [6]) it was 30.5 nM; in series [1] (SKNAS cells) it was over 100000 nM; on Caspase-7 it was 3.7 nM; in series [2], 1490 nM. For the same compound, the “activity in the cellular lamin degradation assay” value in series [1] (SKNAS cells) is “inactive in lamin degradation assay”.
For the compound `CC[C@H](C)[C@H](NC(C)=O)C(=O)N[C@@H](CCC(=O)O)C(=O)N[C@H](C(=O)N[C@H](C=O)CC(=O)O)[C@@H](C)O` [Ac-IETD-CHO] (Ac-IETD-aldehyde), the IC50 at Caspase-6 (setting [6]) was found to be 53.2 nM; at Caspase-7, 553 nM; at Caspase-3, 75.8 nM.
For the compound `CC[C@H](C)[C@H](NC(=O)[C@H](CCC(=O)O)NC(=O)[C@@H](NC(C)=O)C(C)C)C(=O)N[C@H](C=O)CC(=O)O` [Ac-VEID-CHO] (Ac-VEID-aldehyde), the “activity in the cellular lamin degradation assay” value in series [1] (SKNAS cells) was “lacks any activity in the cellular assay”. The half-inhibitory concentration (IC50) at Caspase-7 amounted to 162 nM; on Caspase-3, 13.6 nM; in series [2], 490 nM.
Turning to `CC(C)[C@H](NC(=O)c1ccc2ccccc2n1)C(=O)N[C@@H](CC(=O)O)C(=O)COc1c(F)cccc1F` [Q-VD-OPh], the half-inhibitory concentration (IC50) on Caspase-6 (setting [5]) came to 156 nM; in series [1] (SKNAS cells) it was 940 nM. Moreover, the “fold lower potency in cellular lamin assay than in enzymatic assay” value in series [1] is 6 fold. In the series on SKNAS cells [3], the “% cell accumulation” value is recorded as 1.72%.
Regarding `CN[C@@H]1C[C@H]2O[C@@](C)([C@@H]1OC)n1c3ccccc3c3c4c(c5c6ccccc6n2c5c31)C(=O)NC4` [staurosporine], the “signal:background ratio of lamin A/C degradation” value in series [1] (SKNAS cells, 3 µM staurosporine, six-hour treatment, no inhibitor) is reported as 8.8 fold. In addition, the “treatment time required for the same degree of LDH release” value with SKNAS cells [4] (30 µM staurosporine) is 4 h. Besides, the “staurosporine concentration at which LDH release is detected above background levels” value with SKNAS cells [4] (after 6 hours of treatment) is about 4 µM.
Consider `COC(=O)CC[C@H](NC(=O)[C@H](CC(=O)OC)NC(=O)OCc1ccccc1)C(=O)N[C@H](C(=O)N[C@@H](CC(=O)OC)C(=O)CF)C(C)C` [z-DEVD-FMK], for which the IC50 at Caspase-6 (setting [5]) is 402 nM; on Caspase-6 (setting [6]) it was 402 nM; in series [1] (SKNAS cells), over 100000 nM; at Caspase-7 it was 98.5 nM.
As to `COC(=O)C[C@H](NC(=O)[C@H](C)NC(=O)[C@@H](NC(=O)OCc1ccccc1)C(C)C)C(=O)CF` [z-VAD-FMK] (Cbz-Val-Ala-Asp(OMe)-CH2F), the IC50 at Caspase-6 (setting [5]) stood at 2110 nM; on Caspase-6 (setting [6]), 2110 nM; in series [1] (SKNAS cells), 44000 nM; at Caspase-7 it was 74.7 nM; at Caspase-3, 168 nM.
Consider `CC[C@H](C)[C@H](NC(=O)[C@H](CCC(=O)OC)NC(=O)[C@@H](NC(=O)OCc1ccccc1)C(C)C)C(=O)N[C@@H](CC(=O)OC)C(=O)CF` [z-VEID-FMK] (Cbz-VE(OMe)ID(OMe)-CH2F), for which the IC50 on Caspase-6 (setting [5]) was found to be 129 nM; at Caspase-6 (setting [6]) it was 129 nM; on Caspase-7, 648 nM; at Caspase-3 it was 45.1 nM.
Turning to z-EID-TFPM, the figures for the 50% inhibitory concentration (IC50) (at Caspase-6 (setting [5]); in series [1] (SKNAS cells)) were 8.4 nM and 21000 nM, respectively.
Turning to z-ID-TFPM, the concentration for half-maximal inhibition (IC50) came out at 19 nM at Caspase-6 (setting [5]) and 180 nM in series [1] (SKNAS cells). Also, in series [1], the “fold lower potency in cellular lamin assay than in enzymatic assay” value is given as about 10 fold. For the same compound, in the series on SKNAS cells [3], the “% cell accumulation” value is on record as 1.97%.
In the case of “z-VEID-tetrafluorophenoxymethyl [z-VEID-TFPM]”, the IC50 is under 1.7 nM on Caspase-6 (setting [5]) and 12000 nM in series [1] (SKNAS cells). Further, the “% cell accumulation” value in the series with SKNAS cells [3] amounted to 0.17%.
